According to the supplement of paper PMC6411743:

Compound: Nc1ncnc2c1ncn2[C@@H]1O[C@H](COP(=O)(O)OP(=O)(O)OP(=O)(O)O)[C@@H](O)[C@H]1O [adenosine triphosphate]
Experiment: pEC50 of ATP-induced change in protein thermal stability (2D-TPP)
How it was run: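 In three independent experiments, Jurkat crude lysate received five concentrations including vehicle for 10 min at room temperature before a 3 min heating step at 12 temperatures (42–63.9 °C). NP40 and benzonase were then added for 60 min at 4 °C, and soluble protein after ultracentrifugation was read out by TMT LC-MS/MS as median-normalised fold changes against vehicle at each temperature. Dose-response fits per replicate over adjacent temperature pairs yielded pEC50, with hits called by permutation-based false discovery rate control.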
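Also: lysate dosed with Na-ATP at 0 0.005 0.05 0.5 and 2 mM.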

Chain of UniProt Q14571 (Q14571 whole entry): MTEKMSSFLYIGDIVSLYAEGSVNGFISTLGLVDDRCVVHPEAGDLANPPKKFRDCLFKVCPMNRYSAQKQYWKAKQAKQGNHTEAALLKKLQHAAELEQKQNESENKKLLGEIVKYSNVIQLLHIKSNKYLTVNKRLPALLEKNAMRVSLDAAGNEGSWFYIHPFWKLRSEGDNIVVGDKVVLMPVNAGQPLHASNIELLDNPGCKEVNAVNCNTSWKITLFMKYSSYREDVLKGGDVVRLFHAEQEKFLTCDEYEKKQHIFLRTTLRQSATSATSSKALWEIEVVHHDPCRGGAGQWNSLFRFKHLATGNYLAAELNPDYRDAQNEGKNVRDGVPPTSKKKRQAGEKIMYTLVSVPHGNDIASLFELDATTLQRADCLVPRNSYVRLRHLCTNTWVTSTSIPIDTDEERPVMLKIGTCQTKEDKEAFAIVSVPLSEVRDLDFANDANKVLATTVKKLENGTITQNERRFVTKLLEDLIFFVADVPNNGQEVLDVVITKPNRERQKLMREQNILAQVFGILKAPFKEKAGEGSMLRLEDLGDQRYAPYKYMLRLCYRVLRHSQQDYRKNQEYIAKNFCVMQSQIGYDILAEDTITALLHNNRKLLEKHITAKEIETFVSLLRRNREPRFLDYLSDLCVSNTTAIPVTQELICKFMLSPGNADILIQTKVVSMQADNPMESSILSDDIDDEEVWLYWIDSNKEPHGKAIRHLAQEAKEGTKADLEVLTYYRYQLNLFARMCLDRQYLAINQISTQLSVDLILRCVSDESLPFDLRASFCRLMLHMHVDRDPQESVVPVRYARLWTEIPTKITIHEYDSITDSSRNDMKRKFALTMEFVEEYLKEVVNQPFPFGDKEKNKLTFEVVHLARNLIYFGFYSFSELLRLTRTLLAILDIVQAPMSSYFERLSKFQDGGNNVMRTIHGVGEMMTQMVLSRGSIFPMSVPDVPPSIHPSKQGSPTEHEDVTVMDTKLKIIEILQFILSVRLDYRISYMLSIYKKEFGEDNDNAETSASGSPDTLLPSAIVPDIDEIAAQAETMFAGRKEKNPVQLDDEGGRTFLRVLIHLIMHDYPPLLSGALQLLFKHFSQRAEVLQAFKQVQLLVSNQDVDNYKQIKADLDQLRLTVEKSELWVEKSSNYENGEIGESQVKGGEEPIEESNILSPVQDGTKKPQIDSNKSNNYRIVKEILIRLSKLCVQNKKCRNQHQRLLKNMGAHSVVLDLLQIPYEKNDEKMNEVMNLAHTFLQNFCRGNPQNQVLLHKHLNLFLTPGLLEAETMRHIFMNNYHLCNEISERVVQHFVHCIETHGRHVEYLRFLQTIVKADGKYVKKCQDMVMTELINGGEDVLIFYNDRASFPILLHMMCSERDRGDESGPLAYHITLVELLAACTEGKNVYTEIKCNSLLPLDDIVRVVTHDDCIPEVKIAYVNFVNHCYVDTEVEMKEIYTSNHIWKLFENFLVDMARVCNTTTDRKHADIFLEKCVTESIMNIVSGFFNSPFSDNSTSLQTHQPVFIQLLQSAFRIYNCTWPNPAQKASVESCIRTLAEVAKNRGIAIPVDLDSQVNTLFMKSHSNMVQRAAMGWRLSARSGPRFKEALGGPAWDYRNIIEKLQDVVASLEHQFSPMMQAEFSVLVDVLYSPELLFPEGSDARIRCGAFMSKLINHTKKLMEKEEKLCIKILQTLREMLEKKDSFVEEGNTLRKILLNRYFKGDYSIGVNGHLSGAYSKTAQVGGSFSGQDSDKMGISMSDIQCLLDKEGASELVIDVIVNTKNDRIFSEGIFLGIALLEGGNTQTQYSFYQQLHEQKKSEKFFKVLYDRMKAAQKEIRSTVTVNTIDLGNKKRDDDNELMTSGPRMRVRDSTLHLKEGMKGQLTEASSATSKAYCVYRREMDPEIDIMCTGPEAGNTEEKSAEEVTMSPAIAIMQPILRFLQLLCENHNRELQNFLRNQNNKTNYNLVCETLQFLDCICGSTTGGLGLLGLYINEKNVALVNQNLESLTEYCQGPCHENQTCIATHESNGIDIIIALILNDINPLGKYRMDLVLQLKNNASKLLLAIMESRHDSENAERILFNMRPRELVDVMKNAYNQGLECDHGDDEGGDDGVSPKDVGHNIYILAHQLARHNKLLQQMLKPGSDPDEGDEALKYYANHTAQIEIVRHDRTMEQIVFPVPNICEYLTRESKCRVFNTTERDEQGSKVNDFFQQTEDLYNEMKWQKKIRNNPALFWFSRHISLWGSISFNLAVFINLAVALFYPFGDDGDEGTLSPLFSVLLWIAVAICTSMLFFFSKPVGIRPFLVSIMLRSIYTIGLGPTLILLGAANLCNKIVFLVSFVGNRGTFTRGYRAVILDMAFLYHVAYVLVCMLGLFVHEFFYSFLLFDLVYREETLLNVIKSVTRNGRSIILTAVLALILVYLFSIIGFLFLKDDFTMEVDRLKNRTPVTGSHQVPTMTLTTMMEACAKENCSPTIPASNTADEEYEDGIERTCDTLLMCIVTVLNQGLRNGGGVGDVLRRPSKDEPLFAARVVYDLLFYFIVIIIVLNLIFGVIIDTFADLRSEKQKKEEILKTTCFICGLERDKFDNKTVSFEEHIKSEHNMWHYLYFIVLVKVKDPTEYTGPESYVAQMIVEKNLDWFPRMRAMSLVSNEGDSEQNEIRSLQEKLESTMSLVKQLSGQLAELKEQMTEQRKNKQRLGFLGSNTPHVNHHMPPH
Chain of UniProt O60763 (O60763 whole entry): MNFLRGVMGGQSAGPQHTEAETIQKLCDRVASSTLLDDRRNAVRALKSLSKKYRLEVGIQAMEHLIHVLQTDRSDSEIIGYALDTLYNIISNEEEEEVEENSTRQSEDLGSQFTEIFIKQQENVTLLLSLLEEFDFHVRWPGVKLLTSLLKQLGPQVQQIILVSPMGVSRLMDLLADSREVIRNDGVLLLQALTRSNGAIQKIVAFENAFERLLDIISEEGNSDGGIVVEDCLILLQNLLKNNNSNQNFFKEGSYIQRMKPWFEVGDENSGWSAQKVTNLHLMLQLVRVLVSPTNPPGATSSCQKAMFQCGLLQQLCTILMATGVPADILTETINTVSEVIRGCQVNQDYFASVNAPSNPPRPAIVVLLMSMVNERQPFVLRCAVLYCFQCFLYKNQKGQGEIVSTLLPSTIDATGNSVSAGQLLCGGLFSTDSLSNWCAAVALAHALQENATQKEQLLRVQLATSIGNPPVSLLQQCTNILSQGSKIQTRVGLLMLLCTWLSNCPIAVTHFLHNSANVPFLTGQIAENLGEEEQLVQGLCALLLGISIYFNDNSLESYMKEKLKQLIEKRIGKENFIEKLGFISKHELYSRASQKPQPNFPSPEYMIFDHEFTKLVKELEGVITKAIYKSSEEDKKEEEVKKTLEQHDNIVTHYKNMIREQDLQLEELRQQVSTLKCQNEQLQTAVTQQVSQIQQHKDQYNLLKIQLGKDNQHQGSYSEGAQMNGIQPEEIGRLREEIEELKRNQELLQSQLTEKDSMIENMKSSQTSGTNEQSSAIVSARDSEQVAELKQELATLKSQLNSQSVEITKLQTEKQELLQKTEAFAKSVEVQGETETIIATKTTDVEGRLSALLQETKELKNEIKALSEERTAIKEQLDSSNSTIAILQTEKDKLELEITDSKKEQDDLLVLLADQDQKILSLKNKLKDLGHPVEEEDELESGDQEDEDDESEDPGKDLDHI
Chain of UniProt P35626 (P35626 whole entry): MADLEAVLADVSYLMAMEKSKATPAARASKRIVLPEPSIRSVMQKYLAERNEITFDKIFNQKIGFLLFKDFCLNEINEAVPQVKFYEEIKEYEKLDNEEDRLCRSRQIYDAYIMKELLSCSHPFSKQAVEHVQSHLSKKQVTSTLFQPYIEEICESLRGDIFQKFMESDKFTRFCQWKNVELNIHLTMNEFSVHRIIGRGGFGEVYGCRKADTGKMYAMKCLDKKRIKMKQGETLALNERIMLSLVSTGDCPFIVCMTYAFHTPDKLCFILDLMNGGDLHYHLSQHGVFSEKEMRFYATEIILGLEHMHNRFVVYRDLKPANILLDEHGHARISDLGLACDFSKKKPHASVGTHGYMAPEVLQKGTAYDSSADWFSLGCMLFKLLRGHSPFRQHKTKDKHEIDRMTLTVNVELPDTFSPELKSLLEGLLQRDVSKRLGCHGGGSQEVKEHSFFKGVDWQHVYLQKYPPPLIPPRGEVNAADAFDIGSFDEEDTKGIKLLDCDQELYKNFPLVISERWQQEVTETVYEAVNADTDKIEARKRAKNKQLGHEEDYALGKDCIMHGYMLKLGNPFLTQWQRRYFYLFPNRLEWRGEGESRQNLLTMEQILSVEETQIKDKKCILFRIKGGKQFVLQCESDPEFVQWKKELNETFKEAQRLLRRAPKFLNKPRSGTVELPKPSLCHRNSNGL
Chain of UniProt Q9Y5K5 (Q9Y5K5 whole entry): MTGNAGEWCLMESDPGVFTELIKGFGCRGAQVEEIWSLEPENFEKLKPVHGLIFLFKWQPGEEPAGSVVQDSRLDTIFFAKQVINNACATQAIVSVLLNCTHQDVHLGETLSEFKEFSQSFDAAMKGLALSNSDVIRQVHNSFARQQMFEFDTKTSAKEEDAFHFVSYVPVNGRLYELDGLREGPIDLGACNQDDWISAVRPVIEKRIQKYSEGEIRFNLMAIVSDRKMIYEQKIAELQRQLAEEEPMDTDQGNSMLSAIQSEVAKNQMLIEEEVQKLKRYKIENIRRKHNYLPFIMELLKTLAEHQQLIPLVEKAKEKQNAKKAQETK
Chain of UniProt Q9P289 (Q9P289 whole entry, looked up): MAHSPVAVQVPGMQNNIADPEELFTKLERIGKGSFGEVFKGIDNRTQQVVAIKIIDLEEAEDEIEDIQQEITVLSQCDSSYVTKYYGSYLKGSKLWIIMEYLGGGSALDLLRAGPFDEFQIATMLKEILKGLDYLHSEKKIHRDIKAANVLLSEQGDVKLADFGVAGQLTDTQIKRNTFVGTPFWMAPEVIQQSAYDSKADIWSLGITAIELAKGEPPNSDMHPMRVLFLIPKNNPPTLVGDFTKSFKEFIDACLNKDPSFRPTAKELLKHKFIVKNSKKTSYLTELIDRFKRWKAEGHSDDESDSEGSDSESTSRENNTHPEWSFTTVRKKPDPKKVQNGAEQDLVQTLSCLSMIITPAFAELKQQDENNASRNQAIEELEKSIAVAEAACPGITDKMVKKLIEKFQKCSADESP

Row | Target | pEC50
1 | SMARCC1 (effect direction: stabilized) (UniProt Q92922) | 3.43
2 | GPN3 (effect direction: destabilized) (UniProt Q9UHW5) | 2.74
3 | RAP1GDS1 (effect direction: stabilized) (UniProt P52306) | < 2.7
4 | USO1 (effect direction: stabilized) (UniProt O60763) | < 2.7
5 | UniProt P68431 (effect direction: stabilized) | 2.79
6 | RANGAP1 (effect direction: stabilized) (UniProt P46060) | < 2.7
7 | TRIM21 (effect direction: stabilized) (UniProt P19474) | 2.77
8 | UniProt Q13131 (effect direction: stabilized) | 3.29
9 | MTHFD2 (effect direction: stabilized) (UniProt P13995) | 3.15
10 | CMPK1 (effect direction: stabilized) (UniProt P30085) | 3.27
11 | TRIM28 (effect direction: stabilized) (UniProt Q13263) | < 2.7
12 | UniProt P25098 (effect direction: stabilized) | 3.38
13 | TSEN2 (effect direction: stabilized) (UniProt Q8NCE0) | 3.12
14 | MAP4K5 (effect direction: stabilized) (UniProt Q9Y4K4) | 3.41
15 | UniProt Q63HN8 (effect direction: stabilized) | 3
16 | UniProt P35626 (effect direction: stabilized) | 3.31
17 | EEF1D (effect direction: stabilized) (UniProt P29692) | < 2.7
18 | NARS2 (effect direction: stabilized) (UniProt Q96I59) | 4.1
19 | ITPR2 (effect direction: stabilized) (UniProt Q14571) | 3.28
20 | YARS (effect direction: stabilized) (UniProt P54577) | 3.25
21 | ABCB8 (effect direction: stabilized) (UniProt Q9NUT2) | 3.5
22 | ARMC1 (effect direction: stabilized) (UniProt Q9NVT9) | < 2.7
23 | RPS3A (effect direction: destabilized) (UniProt P61247) | 3.86
24 | UniProt P62847 (effect direction: destabilized) | 4.16

Row | Target | pEC50
25 | TLK2 (effect direction: stabilized) (UniProt Q86UE8) | 3.07
26 | UCHL5 (effect direction: stabilized) (UniProt Q9Y5K5) | < 2.7
27 | PPP3CB (effect direction: destabilized) (UniProt P16298) | 3.06
28 | DDX20 (effect direction: stabilized) (UniProt Q9UHI6) | 3.48
29 | PHKG2 (effect direction: stabilized) (UniProt P15735) | 2.96
30 | PRKCH (effect direction: stabilized) (UniProt P24723) | 3.5
31 | UniProt P49591 (effect direction: stabilized) | < 2.7
32 | UniProt P84095 (effect direction: destabilized) | 3.01
33 | EFHD1 (effect direction: destabilized) (UniProt Q9BUP0) | 3.18
34 | UBA2 (effect direction: stabilized) (UniProt Q9UBT2) | < 2.7
35 | UniProt P27361 (effect direction: stabilized) | 3.54
36 | PDCD5 (effect direction: destabilized) (UniProt O14737) | 3.52
37 | HNRNPH1 (effect direction: stabilized) (UniProt P31943) | 2.93
38 | CDK2 (effect direction: stabilized) (UniProt P24941) | 3.13
39 | ATP1A1 (effect direction: stabilized) (UniProt P05023) | 3.18
40 | ATP2B4 (effect direction: stabilized) (UniProt P23634) | 3.22
41 | CENPE (effect direction: stabilized) (UniProt Q02224) | 4.04
42 | RPL13 (effect direction: destabilized) (UniProt P26373) | > 5.3
43 | MAGED2 (effect direction: destabilized) (UniProt Q9UNF1) | 3.7
44 | CDIPT (effect direction: destabilized) (UniProt O14735) | 2.77
45 | UniProt O43929 (effect direction: stabilized) | 3.63
46 | UniProt Q9P289 (effect direction: stabilized) | 3.21
47 | HNRNPF (effect direction: stabilized) (UniProt P52597) | < 2.7
48 | PDK3 (effect direction: stabilized) (UniProt Q15120) | 2.84

Row | Target | pEC50
49 | SPG7 (effect direction: stabilized) (UniProt Q9UQ90) | 4.48
50 | MAPRE1 (effect direction: stabilized) (UniProt Q15691) | < 2.7
51 | NEK9 (effect direction: stabilized) (UniProt Q8TD19) | 3.19
52 | UniProt O43598 (effect direction: stabilized) | 3.25
53 | UniProt P61353 (effect direction: destabilized) | > 5.3
54 | DHCR24 (effect direction: stabilized) (UniProt Q15392) | 3.66
55 | CLIC1 (effect direction: stabilized) (UniProt O00299) | < 2.7
56 | UniProt O14757 (effect direction: stabilized) | 3.26
57 | UBA3 (effect direction: stabilized) (UniProt Q8TBC4) | 3.86
58 | NAPA (effect direction: destabilized) (UniProt P54920) | 4.56
59 | USP47 (effect direction: stabilized) (UniProt Q96K76) | < 2.7
60 | CYB5R3 (effect direction: stabilized) (UniProt P00387) | 4.02
61 | TTF2 (effect direction: stabilized) (UniProt Q9UNY4) | 3.17
62 | KATNAL1 (effect direction: stabilized) (UniProt Q9BW62) | 3.26
63 | UniProt Q14289 (effect direction: stabilized) | 3.03
64 | PLCG1 (effect direction: stabilized) (UniProt P19174) | 2.94
65 | NMNAT1 (effect direction: stabilized) (UniProt Q9HAN9) | 3.08
66 | PCID2 (effect direction: stabilized) (UniProt Q5JVF3) | 3.02
67 | CNOT2 (effect direction: stabilized) (UniProt Q9NZN8) | 2.77
68 | RPL14 (effect direction: destabilized) (UniProt P50914) | 3.99
69 | EIF3K (effect direction: stabilized) (UniProt Q9UBQ5) | < 2.7
70 | NANP (effect direction: destabilized) (UniProt Q8TBE9) | 3.08
71 | PEPD (effect direction: destabilized) (UniProt P12955) | < 2.7
72 | FAM49B (effect direction: stabilized) (UniProt Q9NUQ9) | 2.78

Row | Target | pEC50
73 | RPN1 (effect direction: stabilized) (UniProt P04843) | < 2.7
74 | SMC4 (effect direction: stabilized) (UniProt Q9NTJ3) | 3.54
75 | ASNA1 (effect direction: stabilized) (UniProt O43681) | 3.31
76 | FOXK1 (effect direction: stabilized) (UniProt P85037) | 3.36
77 | MEPCE (effect direction: stabilized) (UniProt Q7L2J0) | 2.82
78 | BNIP2 (effect direction: stabilized) (UniProt Q12982) | < 2.7
79 | UniProt Q8WYJ6 (effect direction: stabilized) | < 2.7
80 | PHGDH (effect direction: stabilized) (UniProt O43175) | < 2.7
81 | ALDH5A1 (effect direction: stabilized) (UniProt P51649) | 3.06
82 | DYRK1A (effect direction: stabilized) (UniProt Q13627) | 3.49
83 | UniProt Q9UKZ1 (effect direction: stabilized) | 3.4
84 | RDH14 (effect direction: stabilized) (UniProt Q9HBH5) | 3.2
85 | OSBPL8 (effect direction: stabilized) (UniProt Q9BZF1) | 3.4
86 | SMG6 (effect direction: stabilized) (UniProt Q86US8) | 3.49
87 | UniProt Q96C57 (effect direction: destabilized) | 4.35
88 | UniProt O15530 (effect direction: stabilized) | 3.24
89 | ARHGAP1 (effect direction: stabilized) (UniProt Q07960) | 3.14
90 | ALDH6A1 (effect direction: stabilized) (UniProt Q02252) | 3.53
91 | UniProt Q9HCP0 (effect direction: stabilized) | 3.72
92 | NUP188 (effect direction: stabilized) (UniProt Q5SRE5) | < 2.7
93 | RFK (effect direction: stabilized) (UniProt Q969G6) | 4.07
